The values below come from patent publication US20170360875A1 (priority 2014, published 2017).

Assay [1] has as its target hepatitis A virus. Nature of the assay: reverse ELISA control; HRP without antibody on plate coated with HAV 1:10. For orientation: An ELISA detects its analyte on a solid surface through an enzyme-linked reagent.
Assay [2] deals with hepatitis C virus core protein (hepatitis C virus). Nature of the assay: reverse ELISA control; HRP without antibody on plate coated with 5 µg HCV core protein.
Assay [3] concerns the target Influenza A/MAL/NY/6750/78 H2N2 virus. Nature of the assay: reverse ELISA control; HRP without antibody on plate coated with IAV 1:100.
Assay [4] concerns the target hepatitis A virus. As to the kind of experiment: reverse ELISA control; HRP without antibody on plate coated with HAV 1:100.
In assay [5] the target is Influenza A/MAL/NY/6750/78 H2N2 virus. As to the kind of experiment: reverse ELISA control; HRP without antibody on plate coated with IAV 1:10.
Assay [6] has as its system FcγIIIa. It is filed as binding.
Another assay deals with C1q. The class given is binding, human.
The subject of assay [7] is FcγIIb. The class given is binding.
In another assay the test system is FcγIIb/c. The class given is binding.
In assay [8] the test system is FcγIIa (H131 allele). The class given is binding, human.
The subject of assay [9] is hepatitis A virus. It is filed as binding. The following applies: for 1:10 HAV (OD 405 nm): 1:10 virus dilution, IC alone 0.997; for 1:100 HAV (OD 405 nm): 1:100 virus dilution, IC alone 0.953.
The subject of assay [10] is FcγIIIb (NA2). It is filed as binding.
In assay [11] the test system is Influenza A/MAL/NY/6750/78 H2N2 virus. The following applies: for Percent Inhibition, 1:10 IAV / Percent Inhibition, 1:100 IAV: /MAL/NY/6750/78 H2N2 virus.
In assay [12] the test system is FcγI. It is filed as binding.
For assay [13], the system named is Sudan Ebolavirus Glycoprotein (GP). It is filed as binding.
In assay [14] the test system is hepatitis C virus core protein. It is filed as binding. To be noted: NB406 10 mg/mL.
The target of assay [15] is FcγIIb (UniProt P31994). As to the kind of experiment: reverse ELISA; PAP IC without inhibitor on plate coated with FcγIIb.
In assay [16] the target is recombinant Sudan Ebolavirus glycoprotein (IBT Bioservices, Catalogue Number 0501-015) (Sudan Ebolavirus).
In a further assay the target is FcγIIa (R131 allele) (UniProt P12318).
Assay [17] addresses human C1q (Quidel Corp.) (human) (UniProt P02745). As to the kind of experiment: reverse ELISA; PAP IC without inhibitor on C1q-coated plate.
For assay [18], the target named is Influenza A/MAL/NY/6750/78 H2N2 virus. Nature of the assay: reverse ELISA; PAP IC without inhibitor on plate coated with IAV 1:10.
Assay [19] deals with hepatitis A virus. As to the kind of experiment: reverse ELISA; PAP IC without inhibitor on plate coated with HAV 1:100; average of three experiments.
In assay [20] the target is hepatitis A virus. As to the kind of experiment: reverse ELISA; PAP IC without inhibitor on plate coated with HAV 1:10; average of three experiments.
The target in assay [21] is FcγIIIa (UniProt P08637). Nature of the assay: reverse ELISA; PAP IC without inhibitor on plate coated with FcγIIIa.
Assay [22] deals with Influenza A/MAL/NY/6750/78 H2N2 virus. Nature of the assay: reverse ELISA; PAP IC without inhibitor on plate coated with IAV 1:100.
Assay [23] concerns the target FcγIIa (H131 allele) (UniProt P12318).
Assay [24] concerns the target FcγI (UniProt P12314). Nature of the assay: reverse ELISA; PAP IC without inhibitor on plate coated with FcγI.
In assay [25] the target is FcγIIb (UniProt P31994). Nature of the assay: reverse ELISA; PAP IC without inhibitor on plate coated with FcγIIb/c.
Assay [26] addresses FcγIIIb (NA2) (UniProt O75015). Nature of the assay: reverse ELISA; PAP IC without inhibitor on plate coated with FcγIIIb (NA2).
Assay [27] has as its target hepatitis C virus core protein (hepatitis C virus). Nature of the assay: reverse ELISA; PAP IC without inhibitor on plate coated with 5 µg HCV core protein; average of three experiments.
The mark [28] stands for this setting: NB406 10 mg/mL, average of three experiments.

Where “and” joins values, the source holds several entries; their conditions need not be identical. Identical values can stand only once. Like-named read-outs stand apart in the source and are kept apart here. Ends that are not written are not given here.

Chain of UniProt P31994 (P31994 46-217 limits assumed): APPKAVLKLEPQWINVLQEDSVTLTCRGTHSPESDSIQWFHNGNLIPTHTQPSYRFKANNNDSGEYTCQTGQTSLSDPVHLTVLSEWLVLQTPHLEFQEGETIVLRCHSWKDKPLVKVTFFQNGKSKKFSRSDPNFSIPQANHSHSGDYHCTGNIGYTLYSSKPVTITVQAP
Chain of UniProt P12314 (P12314 16-288 limits assumed): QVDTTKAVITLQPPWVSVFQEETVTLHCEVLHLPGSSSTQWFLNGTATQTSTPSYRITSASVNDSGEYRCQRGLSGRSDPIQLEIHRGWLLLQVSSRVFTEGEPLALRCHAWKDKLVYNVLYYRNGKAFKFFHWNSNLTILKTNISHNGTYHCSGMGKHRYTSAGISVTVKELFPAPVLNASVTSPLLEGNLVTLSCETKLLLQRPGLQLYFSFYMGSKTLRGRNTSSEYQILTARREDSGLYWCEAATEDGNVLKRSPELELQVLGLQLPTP
Chain of UniProt O75015 (O75015 17-200 N65S): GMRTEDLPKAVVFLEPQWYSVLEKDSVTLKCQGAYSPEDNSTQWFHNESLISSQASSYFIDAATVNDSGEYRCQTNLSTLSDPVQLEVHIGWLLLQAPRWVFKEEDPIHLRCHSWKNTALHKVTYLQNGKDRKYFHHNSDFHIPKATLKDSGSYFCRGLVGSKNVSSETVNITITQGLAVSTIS
Chain of UniProt P08637 (P08637 17-208): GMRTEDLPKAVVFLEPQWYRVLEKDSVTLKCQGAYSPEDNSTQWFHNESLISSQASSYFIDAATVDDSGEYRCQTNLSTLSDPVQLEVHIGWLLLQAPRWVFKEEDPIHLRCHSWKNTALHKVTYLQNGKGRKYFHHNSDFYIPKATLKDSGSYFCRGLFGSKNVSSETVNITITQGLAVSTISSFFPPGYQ
Chain of UniProt P02745 (P02745 23-245 limits assumed, chain 1 of 3): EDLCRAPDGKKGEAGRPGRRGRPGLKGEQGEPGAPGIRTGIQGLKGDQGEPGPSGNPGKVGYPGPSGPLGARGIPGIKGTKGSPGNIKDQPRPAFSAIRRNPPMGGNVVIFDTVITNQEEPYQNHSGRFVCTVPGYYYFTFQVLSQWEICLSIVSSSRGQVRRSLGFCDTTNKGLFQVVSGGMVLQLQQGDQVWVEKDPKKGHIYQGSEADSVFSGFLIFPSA
Chain of UniProt P02745 (P02746 28-253 limits assumed, chain 2 of 3, further chain): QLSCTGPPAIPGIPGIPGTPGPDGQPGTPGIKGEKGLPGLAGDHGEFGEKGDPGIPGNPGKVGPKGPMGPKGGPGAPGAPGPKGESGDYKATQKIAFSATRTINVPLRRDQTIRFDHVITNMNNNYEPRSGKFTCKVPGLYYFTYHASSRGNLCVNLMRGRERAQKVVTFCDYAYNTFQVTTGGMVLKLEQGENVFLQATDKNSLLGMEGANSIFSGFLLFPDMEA
Chain of UniProt P02745 (P02747 29-245 limits assumed, chain 3 of 3, further chain): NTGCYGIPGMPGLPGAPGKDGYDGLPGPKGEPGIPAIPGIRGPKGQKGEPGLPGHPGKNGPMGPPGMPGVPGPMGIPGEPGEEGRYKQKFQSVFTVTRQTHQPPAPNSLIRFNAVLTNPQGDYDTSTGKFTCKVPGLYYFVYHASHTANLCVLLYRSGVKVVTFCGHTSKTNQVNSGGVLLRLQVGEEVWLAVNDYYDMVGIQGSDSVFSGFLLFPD

Take “horseradish peroxidase (HRP), Sigma-Aldrich P6782 (from UniProt P00433 31-338) (enzyme)”: the OD 405 nm with hepatitis A virus [1] was 0.117 OD 405 nm; in assay [2] it was 0.172 OD 405 nm; in assay [3] it was 0.178 OD 405 nm; in the assay with hepatitis A virus [4], 0.138 OD 405 nm; in assay [5], 0.163 OD 405 nm.
Regarding “Asp-Cys-Ala-Trp-His-Leu-Gly-Glu-Leu-Val-Trp-Cys-Thr [SEQ ID NO:2]”, the “OD405 FcγIIIa” value in the assay on FcγIIIa [6] amounted to 0.741. Further, the “OD 405 nm” value with C1q came to 1.100. For the same compound, in the assay on FcγIIb [7], the “OD405 FcγIIb” value is 0.532.
With `CC(C)C[C@@H]1NC(=O)[C@H](Cc2c[nH]cn2)NC(=O)[C@H](Cc2c[nH]c3ccccc23)NC(=O)[C@H](C)NC(=O)[C@@H](NC(=O)[C@H](CC(=O)O)NC(=O)[C@@H]2CCCN2C(=O)[C@@H]2CCCN2C(=O)[C@H](C)N)CSSC[C@@H](C(=O)N[C@H](C(=O)O)[C@@H](C)O)NC(=O)[C@H](Cc2c[nH]c3ccccc23)NC(=O)[C@H](C(C)C)NC(=O)[C@H](CC(C)C)NC(=O)[C@H](CCC(=O)O)NC(=O)CNC1=O` [SEQ ID NO:20], in the assay with FcγIIb/c, the “% inhibition of IC binding, FcγIIb/c” value stood at 88%; the “FcγIIb/c (read at 405 nm)” value came to 0.266; the “inhibited binding of FcγRIIb to immune complexed IgG Fc” value is given as “more than 70%”. Moreover, in the assay on FcγIIa (H131 allele) [8], the “% inhibition of IC binding, FcγIIa* (H131 allele)” value was determined as 94%; the “FcγIIa* (H131 allele) (read at 405 nm)” value was 0.209; the “inhibited binding of FcγRIIa to immune complexed IgG Fc” value was “more than 70%”. In the assay on hepatitis A virus [9] (NB406 1.11 mg/mL), the “1:10 HAV (OD 405 nm)” value was found to be 0.762 and the “1:100 HAV (OD 405 nm)” value is recorded as 0.774. Further, in the assay with hepatitis A virus [9] (NB406 3.33 mg/mL), the “1:10 HAV (OD 405 nm)” value is 0.305 and the “1:100 HAV (OD 405 nm)” value came out at 0.155. Besides, in the assay with hepatitis A virus [9] (setting [28]), the “1:10 HAV (OD 405 nm)” value is given as 0.050 and the “1:100 HAV (OD 405 nm)” value was 0.055. The “prevention of binding of IC to the hepatitis A virus (in words)” value with hepatitis A virus [9] (conclusion from Table 5) is recorded as “can effectively prevent the binding of IC to the hepatitis A virus”. Further, the “OD405 FcγIIIa” value in the assay on FcγIIIa [6] was found to be 0.670. For the same compound, in the assay with FcγIIIb (NA2) [10], the “% inhibition of IC binding, FcγIIIb (NA2)” value is 91% and the “FcγIIIb (NA2) (read at 405 nm)” value is reported as 0.266. Besides, the “prevention of binding of IC to the influenza virus (in words)” value in assay [11] is recorded as “can effectively prevent the binding of IC to the influenza virus”. In [11] (0.37 mg/mL), the “Percent Inhibition, 1:10 IAV” value was found to be 63.5% and the “Percent Inhibition, 1:100 IAV” value was 61.6%. Also, in [11] (1.11 mg/mL), the “Percent Inhibition, 1:10 IAV” value was determined as 89.5% and the “Percent Inhibition, 1:100 IAV” value is listed as 88.7%. In assay [11] (3.33 mg/mL), the “Percent Inhibition, 1:10 IAV” value is 96.6% and the “Percent Inhibition, 1:100 IAV” value is 96.0%. Besides, in assay [11] (10 mg/mL), the “Percent Inhibition, 1:10 IAV” value stood at 97.6% and the “Percent Inhibition, 1:100 IAV” value stood at 97.0%. Further, in the assay with C1q, the “OD 405 nm” value is listed as 0.389 and the “inhibition of C1q binding (rank in words)” value was “greatest inhibition of C1q binding”. In addition, in the assay on FcγI [12], the “% inhibition of IC binding, FcγI” value is recorded as 89% and the “FcγI (read at 405 nm)” value is recorded as 0.264. Further, in the assay on Sudan Ebolavirus (SEBOV), the “prevention of binding of IC to the Ebola virus (in words)” value was “can effectively prevent the binding of IC to the Ebola virus”. Moreover, in the assay with Sudan Ebolavirus (SEBOV) (1 mg/mL), the “Percent Inhibition, 1:100 SEV” value turned out to be 77.6%; the “Percent Inhibition, 1:1000 SEV” value came out at 64.8%; the “Percent Inhibition, 1:10000 SEV” value worked out at 58.6%. Also, in the assay on Sudan Ebolavirus (SEBOV) (3 mg/mL), the “Percent Inhibition, 1:100 SEV” value is 95.1%; the “Percent Inhibition, 1:1000 SEV” value is listed as 94.6%; the “Percent Inhibition, 1:10000 SEV” value came out at 94.6%. In the assay on Sudan Ebolavirus (SEBOV) (10 mg/mL), the “Percent Inhibition, 1:100 SEV” value is on record as 96.6%; the “Percent Inhibition, 1:1000 SEV” value came out at 96.3%; the “Percent Inhibition, 1:10000 SEV” value was 96.3%. Also, the “OD405 FcγIIb” value in the assay with FcγIIb [7] worked out at 0.496. For the same compound, in assay [13], the “1 ug/mL GP (OD read at 405 nm)” value was 0.042 and 0.053 and 0.071; the “3 ug/mL GP (OD read at 405 nm)” value was 0.042 and 0.046 and 0.081; the “Percent Inhibition, 1 ug/mL GP” value was 96.8% and 96.0% and 94.6%; the “Percent Inhibition, 3 ug/mL GP” value was 96.9% and 96.7% and 94.1%. Further, in [13], the “Percent Inhibition, 10 ug/mL GP” value is 97.1% and 96.4% and 94.1%; the “prevention of binding of IC to the Ebolavirus glycoprotein (in words)” value was “can effectively prevent the binding of IC to the Ebolavirus glycoprotein”. Besides, the “Percent Inhibition, 5 μg HCV Core Protein” value in assay [14] was found to be 89.7%. Further, in assay [14] (IC alone 2.752, average of three experiments), the “5 μg HCV Core Protein (OD 405 nm)” value stood at 0.283.
With “APPCAWHLGELVWCT (cysteine pairing not given here) [SEQ ID NO:14]”, the “OD405 FcγIIIa” value with FcγIIIa [6] is reported as 0.530. Besides, the “OD 405 nm” value in the assay with C1q is 1.148. Moreover, the “OD405 FcγIIb” value in the assay with FcγIIb [7] worked out at 0.562.
On to “APPCARHLGELVWCT (cysteine pairing not given here) [SEQ ID NO:16]”, for which the “OD405 FcγIIIa” value with FcγIIIa [6] came to 0.709. Also, in the assay on C1q, the “OD 405 nm” value is on record as 0.567 and the “inhibition of C1q binding (rank in words)” value is “next best result”. In the assay on FcγIIb [7], the “OD405 FcγIIb” value amounted to 0.768.
Regarding “preformed immune complex of peroxidase-rabbit anti-peroxidase IgG (PAP complex) (from UniProt P00433 31-338)”, the OD405 worked out at 1.39 OD405 in the assay with FcγIIb [15], 1.6 OD405 with FcγIIa (R131 allele) and 1.59 OD405 with FcγIIIa [21]. Further, the OD 405 nm in assay [16] was 1.61 OD 405 nm and 1.38 OD 405 nm and 1.31 OD 405 nm; in assay [17], 2.35 OD 405 nm; in assay [18], 1.94 OD 405 nm; with hepatitis A virus [19], 0.953 OD 405 nm; in the assay with hepatitis A virus [20], 0.997 OD 405 nm; in assay [22], 1.87 OD 405 nm. Further, the OD 405 nm was 3.51 OD 405 nm with FcγIIa (H131 allele) [23]; 2.33 OD 405 nm with FcγI [24]; 2.22 OD 405 nm in the assay with FcγIIb [25]; 3.06 OD 405 nm in the assay with FcγIIIb (NA2) [26]; 2.75 OD 405 nm in assay [27].
As to “APPCAFHLGELVWCT (cysteine pairing not given here) [SEQ ID NO:18]”, the “OD405 FcγIIIa” value in the assay with FcγIIIa [6] was 0.880. Further, in the assay on C1q, the “OD 405 nm” value is reported as 0.983. Moreover, in the assay on FcγIIb [7], the “OD405 FcγIIb” value was 0.380.
The matching figures for “Asp-Cys-Ala-Phe-His-Leu-Gly-Glu-Leu-Val-Trp-Cys-Thr [SEQ ID NO:3]”: 0.810, 0.859 and 0.510.
